# Source: EP3057951B1, “METHYLENE LINKED QUINOLINYL MODULATORS OF ROR-GAMMA-T” (Janssen Pharmaceutica NV, priority 2013, dated 2015)
# Structures can show the parent of a compound that is named as a salt.
# Biological target: T1, wild type human RORγt LBD (Homo sapiens, UniProt P51449)
# T1 construct: expressed in transfected cells; host or cells: HEK293T
# T1 sequence (P51449 258-518): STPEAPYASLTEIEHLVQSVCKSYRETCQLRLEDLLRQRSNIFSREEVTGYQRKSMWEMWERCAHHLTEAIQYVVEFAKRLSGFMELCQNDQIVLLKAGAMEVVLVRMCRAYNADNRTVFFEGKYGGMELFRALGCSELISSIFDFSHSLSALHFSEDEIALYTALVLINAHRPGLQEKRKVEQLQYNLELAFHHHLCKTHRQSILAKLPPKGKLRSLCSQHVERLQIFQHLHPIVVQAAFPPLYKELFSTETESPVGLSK
# Assay: RORγt (LBD) Reporter Assay (GAL4-luciferase, HEK293T cells)
# Assay type: cell-based
# Settings: 6 µM compound concentration; 6 µM
row,"RORγt (LBD) Reporter Assay, % inhibition @ 6 µM [%]",SMILES
1,81,"COc1nc2ccc(C(O)(c3cnnn3C)c3cnc(C)n3C)cc2c(Cl)c1Cc1ccc(F)cc1 (single isomer, unassigned) [Example 65c]"
2,94,"COc1nc2ccc(C(O)(c3ccc(C)nc3C)c3cnnn3C)cc2c(Cl)c1Cc1ccc(C(F)(F)F)nc1 (single isomer, unassigned) [Example 40c, (4-Chloro-2-methoxy-3-((6-(trifluoromethyl)pyridin-3-yl)methyl)quinolin-6-yl)(2,6-dimethylpyridin-3-yl)(1-methyl-1H-1,2,3-triazol-5-yl)methanol]"
3,107,"COc1nc2ccc(C(O)(c3ccccn3)c3cncn3C)cc2c(Cl)c1Cc1ccc(-n2cccn2)cc1 (single isomer, unassigned) [Example 64c, (3-(4-(1H-Pyrazol-1-yl)benzyl)-4-chloro-2-methoxyquinolin-6-yl)(1-methyl-1H-imidazol-5-yl)(pyridin-2-yl)methanol]"

# Same assay, conditions: 6 µM compound concentration; HEK293T cells; 6 µM
row,SMILES,"RORγt (LBD) Reporter Assay, % inhibition @ 6 µM [%]"
1,"COc1nc2ccc(C(O)(c3oc(C)nc3C)c3cnnn3C)cc2c(Cl)c1Cc1ccc(C(F)(F)F)cc1 (single isomer, unassigned) [Example 156c, (4-chloro-2-methoxy-3-(4-(trifluoromethyl)benzyl)quinolin-6-yl)(2,4-dimethylozazol-5-yl)(1-methyl-1H-1,2,3-triazol-5-yl)methanol]",99
2,"Cn1cncc1C(O)(c1ccc(C(F)(F)F)nc1)c1ccc2nc(-n3cccn3)c(Cc3ccccc3)c(C#N)c2c1 (single isomer, unassigned) [Example 114c, 3-Benzyl-6-(hydroxy(1-methyl-1H-imidazol-5-yl)(6-(trifluoromethyl)pyridin-3-yl)methyl)-2-(1H-pyrazol-1-yl)quinoline-4-carbonitrile•TFA]",71
3,"COc1nc2ccc(C(c3ccc(C)nc3C)(c3cnnn3C)N(C)C)cc2c(Cl)c1Cc1ccc(C(F)(F)F)cc1 (single isomer, unassigned) [Example 122c, 1-(4-Chloro-2-methoxy-3-(4-(trifluoromethyl)benzyl)quinolin-6-yl)-1-(2,6-dimethylpyridin-3-yl)-N,N-dimethyl-1-(1-methyl-1H-1,2,3-triazol-5-yl)methanamine•TFA]",99

# Results, then the compound that gave them:
row,"RORγt (LBD) Reporter Assay, % inhibition @ 6 µM [%]",SMILES
1,27,"COc1nc2ccc(C(N)(c3ccc(C(F)(F)F)nc3)c3cncn3C)cc2c(Cl)c1Cc1ccccc1 (single isomer, unassigned) [Example 120b, (3-Benzyl-4-chloro-2-methoxyquinolin-6-yl)(1-methyl-1H-imidazol-5-yl)(6-(trifluoromethyl)pyridin-3-yl)methanamine•TFA]"
2,101,"CNC(c1ccc2nc(OC)c(Cc3ccc(C(F)(F)F)cc3)c(Cl)c2c1)(c1ccc(C)nc1C)c1cnnn1C (single isomer, unassigned) [Example 121c, 1-(4-Chloro-2-methoxy-3-(4-(trifluoromethyl)benzyl)quinolin-6-yl)-1-(2,6-dimethylpyridin-3-yl)-N-methyl-1-(1-methyl-1H-1,2,3-triazol-5-yl)methanamine•TFA]"
3,70,"CC(=O)N1CCC(C(O)(c2ccc3nc(C(F)(F)F)c(Cc4ccccc4)c(Cl)c3c2)c2cncn2C)CC1 (single isomer, unassigned) [Example 115c, 1-(4-((3-Benzyl-4-chloro-2-(trifluoromethyl)quinolin-6-yl)(hydroxy)(1-methyl-1H-imidazol-5-yl)methyl)piperidin-1-yl)ethanone•TFA]"
4,66,"COc1nc2ccc(C(N)(c3ccc(C(F)(F)F)nc3)c3cncn3C)cc2c(Cl)c1Cc1ccccc1 (single isomer, unassigned) [Example 120c, (3-Benzyl-4-chloro-2-methoxyquinolin-6-yl)(1-methyl-1H-imidazol-5-yl)(6-(trifluoromethyl)pyridin-3-yl)methanamine•TFA]"

# Same assay, conditions: HEK293T cells
row,IC50 [nM],SMILES
1,140,"CCN(CC)c1nc2ccc(C(O)(c3ccc(Cl)cc3)c3cncn3C)cc2c(C#N)c1Cc1ccc(-n2cccn2)cc1 (single isomer, unassigned) [Example 154b, 3-(4-(1H-pyrazol-1-yl)benzyl)-6-((4-chlorophenyl)(hydroxy)(1-methyl-1H-imidazol-5-yl)methyl)-2-(diethylamino)quinoline4-carbonitrile]"
2,160,"Cn1cncc1C(O)(c1ccc(Cl)cc1)c1ccc2nc(Cl)c(Cc3ccc(C(F)(F)F)cc3)c(Cl)c2c1 (stereo not drawn) [Example 155, (4-chlorophenyl)(2,4-dichloro-3-(4-(trifluoromethyl)benzyl)quinolin-6-yl)(1-methyl-1H-imidazol-5-yl)methanol•TFA]"

# Same assay, conditions: HEK293T cells; value after the comma with ∼, > or < could not be included in the average
row,IC50 [nM],SMILES
1,7.6,"COc1nc2ccc(C(O)(c3cnnn3C)c3cnc(C)n3C)cc2c(C#N)c1Cc1ccc(C(F)(F)F)nc1 (stereo not drawn) [Example 44a, 6-((1,2-Dimethyl-1H-imidazol-5-yl)(hydroxy)(1-methyl-1H-1,2,3-triazol-5-yl)methyl)-2-methoxy-3-((6-(trifluoromethyl)pyridin-3-yl)methyl)quinoline-4-carbonitrile]"

# Same assay, conditions: HEK-293T, read-out: RORγt (LBD) Reporter Assay, % inhibition @ 6 µM, 6 µM compound concentration
row,inhibition at 6 µM [%],SMILES
1,97,"COc1nc2ccc(C(O)(c3cnnn3C)c3cnc(C)n3C)cc2c(C#N)c1Cc1ccc(C(F)(F)F)nc1 (stereo not drawn) [Example 44a, 6-((1,2-Dimethyl-1H-imidazol-5-yl)(hydroxy)(1-methyl-1H-1,2,3-triazol-5-yl)methyl)-2-methoxy-3-((6-(trifluoromethyl)pyridin-3-yl)methyl)quinoline-4-carbonitrile]"
2,74,"COc1nc2ccc(C(O)(c3cnnn3C)c3cnc(C)n3C)cc2c(Cl)c1Cc1ccc(F)cc1 (single isomer, unassigned) [Example 65b]"
3,88,"COc1nc2ccc(C(O)(c3ccc(C)nc3C)c3cnnn3C)cc2c(Cl)c1Cc1ccc(C(F)(F)F)nc1 (single isomer, unassigned) [Example 40b, (4-Chloro-2-methoxy-3-((6-(trifluoromethyl)pyridin-3-yl)methyl)quinolin-6-yl)(2,6-dimethylpyridin-3-yl)(1-methyl-1H-1,2,3-triazol-5-yl)methanol]"
4,98,"COc1nc2ccc(C(O)(c3ccc(C)nc3C)c3cnnn3C)cc2c(Cl)c1Cc1ccc(C(F)(F)F)nc1 (stereo not drawn) [Example 40a, (4-Chloro-2-methoxy-3-((6-(trifluoromethyl)pyridin-3-yl)methyl)quinolin-6-yl)(2,6-dimethylpyridin-3-yl)(1-methyl-1H-1,2,3-triazol-5-yl)methanol]"

row,SMILES,inhibition at 6 µM [%]
1,"COc1c(Cc2ccccc2)c(C(F)(F)F)nc2ccc(C(O)(c3ccc(Cl)cc3)c3cncn3C)cc12 (racemic) [Example 101a, (3-Benzyl-4-methoxy-2-(trifluoromethyl)quinolin-6-yl)(4-chlorophenyl)(1-methyl-1H-imidazol-5-yl)methanol•TFA]",96
2,"COc1c(Cc2ccccc2)c(C(F)(F)F)nc2ccc(C(O)(c3ccc(Cl)cc3)c3cncn3C)cc12 (single isomer, unassigned) [Example 101c]",89
3,"COc1c(Cc2ccccc2)c(C(F)(F)F)nc2ccc(C(O)(c3ccc(Cl)cc3)c3cncn3C)cc12 (single isomer, unassigned) [Example 101b]",62

# Same assay, conditions: HEK-293T, read-out: RORγt (LBD) Reporter Assay, % inhibition @ 6 µM, 6 µM compound concentration; HEK293T cells
row,SMILES,inhibition at 6 µM [%]
1,"Cn1cncc1C(O)(c1ccc(C(F)(F)F)nc1)c1ccc2nc(-c3nccn3C)c(Cc3ccccc3)c(Cl)c2c1 (single isomer, unassigned) [Example 113c, (3-Benzyl-4-chloro-2-(1-methyl-1H-imidazol-2-yl)quinolin-6-yl)(1-methyl-1H-imidazol-5-yl)(6-(trifluoromethyl)pyridin-3-yl)methanol•TFA]",90
2,"COc1nc2ccc(C(O)(c3oc(C)nc3C)c3cnnn3C)cc2c(Cl)c1Cc1ccc(C(F)(F)F)cc1 (single isomer, unassigned) [Example 156b, (4-chloro-2-methoxy-3-(4-(trifluoromethyl)benzyl)quinolin-6-yl)(2,4-dimethylozazol-5-yl)(1-methyl-1H-1,2,3-triazol-5-yl)methanol]",98
3,"COc1nc2ccc(C(c3ccc(C)nc3C)(c3cnnn3C)N(C)C)cc2c(Cl)c1Cc1ccc(C(F)(F)F)cc1 (single isomer, unassigned) [Example 122b, 1-(4-Chloro-2-methoxy-3-(4-(trifluoromethyl)benzyl)quinolin-6-yl)-1-(2,6-dimethylpyridin-3-yl)-N,N-dimethyl-1-(1-methyl-1H-1,2,3-triazol-5-yl)methanamine•TFA]",98
4,"Cn1cncc1C(O)(c1ccc(C(F)(F)F)nc1)c1ccc2nc(-n3cccn3)c(Cc3ccccc3)c(C#N)c2c1 (single isomer, unassigned) [Example 114b, 3-Benzyl-6-(hydroxy(1-methyl-1H-imidazol-5-yl)(6-(trifluoromethyl)pyridin-3-yl)methyl)-2-(1H-pyrazol-1-yl)quinoline-4-carbonitrile•TFA]",86
5,"Cn1cncc1C(O)(c1ccc(Cl)cc1)c1ccc2nc(Cl)c(Cc3ccc(C(F)(F)F)cc3)c(Cl)c2c1 (stereo not drawn) [Example 155, (4-chlorophenyl)(2,4-dichloro-3-(4-(trifluoromethyl)benzyl)quinolin-6-yl)(1-methyl-1H-imidazol-5-yl)methanol•TFA]",88

# Continued, values first:
row,inhibition at 6 µM [%],SMILES
1,98,"CNC(c1ccc2nc(OC)c(Cc3ccc(C(F)(F)F)cc3)c(Cl)c2c1)(c1ccc(C)nc1C)c1cnnn1C (single isomer, unassigned) [Example 121b, 1-(4-Chloro-2-methoxy-3-(4-(trifluoromethyl)benzyl)quinolin-6-yl)-1-(2,6-dimethylpyridin-3-yl)-N-methyl-1-(1-methyl-1H-1,2,3-triazol-5-yl)methanamine•TFA]"
2,67,"CC(=O)N1CCC(C(O)(c2ccc3nc(C(F)(F)F)c(Cc4ccccc4)c(Cl)c3c2)c2cncn2C)CC1 (single isomer, unassigned) [Example 115b, 1-(4-((3-Benzyl-4-chloro-2-(trifluoromethyl)quinolin-6-yl)(hydroxy)(1-methyl-1H-imidazol-5-yl)methyl)piperidin-1-yl)ethanone•TFA]"
